# From patent US11000033B2, “Ketone or oxime compound, and herbicide” (NISSAN CHEMICAL CORPORATION, priority 2014, dated 2021)
# Experiments:
# Type in all cases: in vivo
# [1] = system: Abutilon theophrasti; test: Test Example 4: herbicidal effect by soil treatment (symbol M); settings: application herbicide amount 320 g/ha
# Outline: (§1)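 Seeds were sown in sterilized diluvial soil, covered with about 1.5 cm of soil, and the soil surface was sprayed with a water-diluted emulsion of the compound at a predetermined rate. Plants grew in a greenhouse at 25° C. to 30° C.; effects were scored visually 3 weeks after application.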
# [2] = system: Avena fatua; test: Test Example 5: herbicidal effect by foliage application, plastic box (symbol I); settings: 320 g/ha, 3 weeks after application
# Outline: (§2)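 Emulsion formulation, diluted with water to the intended rate, was applied uniformly to leaves by small sprayer. Recipients were 14-day greenhouse-grown seedlings (25° C. to 30° C.). Assessment followed at 3 weeks.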
# [3] = system: rice plant; test: Test Example 5: effect on crop by foliage application, plastic box (symbol b); settings: 320 g/ha, 3 weeks after application
# Outline: (§3)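 Greenhouse culture at 25° C. to 30° C. followed spot-like sowing into sterilized diluvial soil, with seed covered by roughly 1.5 cm of soil.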
# [4] = system: Veronica persica; test: Test Example 4: herbicidal effect by soil treatment (symbol R); settings: application herbicide amount 320 g/ha
# Outline: as §1
# [5] = system: Leptochloa chinensis; test: Test Example 3: herbicidal effect by foliage application, Wagner pot (symbol D); settings: application herbicide amount 320 g/ha
# Outline: (§4)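 Scoring took place 3 weeks after application, using fixed criteria. Plants had been raised from seed for 14 days at 25 to 30 °C in submerged alluvial soil before a diluted emulsion of the test compound was sprayed uniformly on the leaves.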
# [6] = system: Chenopodium album; test: Test Example 4: herbicidal effect by soil treatment (symbol O); settings: application herbicide amount 320 g/ha
# Outline: as §1
# [7] = system: Abutilon theophrasti; test: Test Example 5: herbicidal effect by foliage application, plastic box (symbol M); settings: 320 g/ha, 3 weeks after application
# Outline: as §2
# [8] = system: Apera spica-venti; test: Test Example 5: herbicidal effect by foliage application, plastic box (symbol L); settings: 320 g/ha, 3 weeks after application
# Outline: as §2
# [9] = system: Setaria viridis; test: Test Example 5: herbicidal effect by foliage application, plastic box (symbol G); settings: 320 g/ha, 3 weeks after application
# Outline: as §2
# [10] = system: Amaranthus retroflexus; test: Test Example 4: herbicidal effect by soil treatment (symbol N); settings: application herbicide amount 320 g/ha
# Outline: as §1
# [11] = system: Digitaria ciliaris; test: Test Example 4: herbicidal effect by soil treatment (symbol F); settings: application herbicide amount 320 g/ha
# Outline: as §1
# [12] = system: Apera spica-venti; test: Test Example 4: herbicidal effect by soil treatment (symbol L); settings: application herbicide amount 320 g/ha
# Outline: as §1
# [13] = system: Echinochloa crus-galli var. crus-galli; test: Test Example 5: herbicidal effect by foliage application, plastic box (symbol H); settings: 320 g/ha, 3 weeks after application
# Outline: as §2
# [14] = system: Stellaria media; test: Test Example 4: herbicidal effect by soil treatment (symbol P); settings: application herbicide amount 320 g/ha
# Outline: as §1
# [15] = system: Echinochloa crus-galli var. crus-galli; test: Test Example 3: herbicidal effect by foliage application, Wagner pot (symbol H); settings: application herbicide amount 320 g/ha
# Outline: as §4
# [16] = system: transplanted rice plant; test: Test Example 1: effect on crop, application before weed generation in submerged conditions (symbol a); settings: application herbicide amount 320 g/ha
# Outline: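 Rice at 2.5 leaf stage transplanted into submerged soil (4 cm depth) sown with three weed species; herbicide applied before weed emergence.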
# [17] = system: Galium spurium; test: Test Example 4: herbicidal effect by soil treatment (symbol Q); settings: application herbicide amount 320 g/ha
# Outline: as §1
# [18] = system: directly sowed rice plant; test: Test Example 3: effect on crop by foliage application, Wagner pot (symbol b); settings: application herbicide amount 320 g/ha
# Outline: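 Steps: fill a 1/10000-are Wagner pot with alluvial soil; add water and mix to submerge at 0.1–0.5 cm depth; sow rice plus Echinochloa crus-galli var. crus-galli, Leptochloa chinensis and Cyperus difformis; grow in a 25–30 °C greenhouse.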
# [19] = system: beet; test: Test Example 5: effect on crop by foliage application, plastic box (symbol f); settings: 320 g/ha, 3 weeks after application
# Outline: as §3
# [20] = system: Lolium multiflorum Lam.; test: Test Example 4: herbicidal effect by soil treatment (symbol K); settings: application herbicide amount 320 g/ha
# Outline: as §1
# [21] = system: Stellaria media; test: Test Example 5: herbicidal effect by foliage application, plastic box (symbol P); settings: 320 g/ha, 3 weeks after application
# Outline: as §2
# [22] = system: rapeseed; test: Test Example 5: effect on crop by foliage application, plastic box (symbol g); settings: 320 g/ha, 3 weeks after application
# Outline: as §3
# [23] = system: Setaria viridis; test: Test Example 4: herbicidal effect by soil treatment (symbol G); settings: application herbicide amount 320 g/ha
# Outline: as §1
compound,measurement,setting,value
CCc1cc(Br)cc(C)c1C1=C(O)CC(CC(C)=O)C1=O (centres unmarked) [7-003],"Herbicidal effect grade, M: Abutilon theophrasti",[1],0 (Herbicidal ratio of 5% or lower (almost no effect))
same,"I: Avena fatua, herbicidal effect (criteria of Test Example 1)",[2],5 (Herbicidal ratio of 90% or more (almost completely withered))
same,"b: directly sowed rice plant, effect on crop (criteria of Test Example 1)",[3],5 (Herbicidal ratio of 90% or more (almost completely withered))
same,"Herbicidal effect grade, R: Veronica persica",[4],0 (Herbicidal ratio of 5% or lower (almost no effect))
same,"herbicidal effect on D (Leptochloa chinensis), grade 0-5",[5],5 (Herbicidal ratio of 90% or more (almost completely withered))
same,"Herbicidal effect grade, O: Chenopodium album",[6],0 (Herbicidal ratio of 5% or lower (almost no effect))
same,"M: Abutilon theophrasti, herbicidal effect (criteria of Test Example 1)",[7],0 (Herbicidal ratio of 5% or lower (almost no effect))
same,"L: Apera spica-venti, herbicidal effect (criteria of Test Example 1)",[8],5 (Herbicidal ratio of 90% or more (almost completely withered))
same,"G: Setaria viridis, herbicidal effect (criteria of Test Example 1)",[9],5 (Herbicidal ratio of 90% or more (almost completely withered))
same,"Herbicidal effect grade, N: Amaranthus retroflexus",[10],0 (Herbicidal ratio of 5% or lower (almost no effect))
same,"Herbicidal effect grade, F: Digitaria ciliaris",[11],5 (Herbicidal ratio of 90% or more (almost completely withered))
same,"Herbicidal effect grade, L: Apera spica-venti",[12],5 (Herbicidal ratio of 90% or more (almost completely withered))
same,"H: Echinochloa crus-galli var. crus-galli, herbicidal effect (criteria of Test Example 1)",[13],5 (Herbicidal ratio of 90% or more (almost completely withered))
same,"Herbicidal effect grade, P: Stellaria media",[14],0 (Herbicidal ratio of 5% or lower (almost no effect))
same,"herbicidal effect on H (Echinochloa crus-galli var. crus-galli), grade 0-5",[15],5 (Herbicidal ratio of 90% or more (almost completely withered))
same,"Effect grade on crop, a: transplanted rice plant",[16],0 (Herbicidal ratio of 5% or lower (almost no effect))
same,"Herbicidal effect grade, Q: Galium spurium",[17],0 (Herbicidal ratio of 5% or lower (almost no effect))
same,"effect on crop b (directly sowed rice plant), grade 0-5",[18],5 (Herbicidal ratio of 90% or more (almost completely withered))
same,"f: beet, effect on crop (criteria of Test Example 1)",[19],0 (Herbicidal ratio of 5% or lower (almost no effect))
same,"Herbicidal effect grade, K: Lolium multiflorum Lam.",[20],5 (Herbicidal ratio of 90% or more (almost completely withered))
same,"P: Stellaria media, herbicidal effect (criteria of Test Example 1)",[21],0 (Herbicidal ratio of 5% or lower (almost no effect))
same,"g: rapeseed, effect on crop (criteria of Test Example 1)",[22],0 (Herbicidal ratio of 5% or lower (almost no effect))
same,"Herbicidal effect grade, G: Setaria viridis",[23],5 (Herbicidal ratio of 90% or more (almost completely withered))
